Reference: patent publication US20110105474A1, “HETEROCYCLIC DERIVATIVES AS HDAC INHIBITORS” (DAC S.r.l., priority 2008, published 2011)
pIC50: −log10 of the molar value. Counter-ions that a name gives are not always drawn.

What was measured:
Format in all cases: cell-based
K562 cells = assay: Cell growth, CellTiter-Glo Luminescent Cell Viability Assay, K562; conditions: Homo sapiens, 72 h incubation
Procedure, shortened: (§1)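 K562, A549 and HCT-116 cells in exponential growth exposed to inhibitors at varying concentrations for 72 h. Viability read as ATP luminescence (CellTiter-Glo, 10 min at RT after lysis); IC50 from dose-response, reported as ranges.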

A549 cells = assay: Cell growth, CellTiter-Glo Luminescent Cell Viability Assay, A549; conditions: Homo sapiens, 72 h incubation
Procedure, shortened: as §1

HCT-116 cells = assay: Cell growth, CellTiter-Glo Luminescent Cell Viability Assay, HCT-116; conditions: Homo sapiens, 72 h incubation, read-out: IC50 HCT116
Procedure, shortened: as §1

SMILES: O=C(/C=C/c1cccc(/C=C/C(=O)N2CCN(c3ccc(C(F)(F)F)cc3)CC2)c1)NO [Example 91, (E)-N-Hydroxy-3-(3-{(E)-3-oxo-3-[4-(4-trifluoromethyl-phenyl)-piperazin-1-yl]-propenyl}-phenyl)-acrylamide hydrochloride]
- pIC50 (K562 cells): 5.52 to 6.00
- pIC50 (A549 cells): 5.52 to 6.00
- pIC50 (HCT-116 cells): 5.52 to 6.00

SMILES: O=C(/C=C/c1cccc(/C=C/C(=O)N2CCCC(c3ccccc3F)C2)n1)NO (stereo not drawn) [Example 92, (E)-3-(6-{(E)-3-[3-(2-Fluoro-phenyl)-piperidin-1-yl]-3-oxo-propenyl}-pyridin-2-yl)-N-hydroxy-acrylamide hydrochloride]
- pIC50 (K562 cells): ≥ 6.00
- pIC50 (A549 cells): ≥ 6.00
- pIC50 (HCT-116 cells): ≥ 6.00

SMILES: O=C(/C=C/c1cccc(/C=C/C(=O)N2CCCC(c3cccc(F)c3)C2)n1)NO (stereo not drawn) [Example 93, (E)-3-(6-{(E)-3-[3-(3-Fluoro-phenyl)-piperidin-1-yl]-3-oxo-propenyl}-pyridin-2-yl)-N-hydroxy-acrylamide hydrochloride]
- pIC50 (K562 cells): ≥ 6.00
- pIC50 (A549 cells): ≥ 6.00
- pIC50 (HCT-116 cells): ≥ 6.00

SMILES: O=C(/C=C/c1cccc(/C=C/C(=O)N2CCCC(c3nc(-c4ccc(F)cc4)no3)C2)n1)NO (stereo not drawn) [Example 94, (E)-3-[6-((E)-3-{3-[3-(4-Fluoro-phenyl)-[1,2,4]oxadiazol-5-yl]-piperidin-1-yl}-3-oxo-propenyl)-pyridin-2-yl]-N-hydroxy-acrylamide hydrochloride]
- pIC50 (K562 cells): ≥ 6.00
- pIC50 (A549 cells): 5.52 to 6.00
- pIC50 (HCT-116 cells): ≥ 6.00

SMILES: O=C(/C=C/c1cccc(/C=C/C(=O)N2CCC=C(c3ccccc3)C2)n1)NO [Example 95, (E)-N-Hydroxy-3-{6-[(E)-3-oxo-3-(5-phenyl-3,6-dihydro-2H-pyridin-1-yl)-propenyl]-pyridin-2-yl}-acrylamide hydrochloride]
- pIC50 (K562 cells): ≥ 6.00
- pIC50 (A549 cells): ≥ 6.00
- pIC50 (HCT-116 cells): ≥ 6.00

SMILES: O=C(/C=C/c1cccc(/C=C/C(=O)N2CCc3cc(-c4ccccc4)ccc3C2)n1)NO [Example 96, (E)-N-Hydroxy-3-{6-[(E)-3-oxo-3-(6-phenyl-3,4-dihydro-1H-isoquinolin-2-yl)-propenyl]-pyridin-2-yl}-acrylamide hydrochloride]
- pIC50 (K562 cells): 5.52 to 6.00
- pIC50 (A549 cells): ≤ 5.52
- pIC50 (HCT-116 cells): 5.52 to 6.00

SMILES: O=C(/C=C/c1cccc(/C=C/C(=O)N2CCc3nc(-c4ccccc4)sc3C2)n1)NO [Example 97, (E)-N-Hydroxy-3-{6-[(E)-3-oxo-3-(2-phenyl-6,7-dihydro-4H-thiazolo[5,4-c]pyridin-5-yl)-propenyl]-pyridin-2-yl}-acrylamide hydrochloride]
- pIC50 (K562 cells): ≥ 6.00
- pIC50 (A549 cells): 5.52 to 6.00
- pIC50 (HCT-116 cells): ≥ 6.00

SMILES: O=C(/C=C/c1cccc(/C=C/C(=O)N2CCCc3nc(-c4ccccc4)sc32)n1)NO [Example 98, (E)-N-Hydroxy-3-{6-[(E)-3-oxo-3-(2-phenyl-6,7-dihydro-5H-thiazolo[5,4-b]pyridin-4-A-propenyl]-pyridin-2-yl}-acrylamide trifluoroacetate]
- pIC50 (K562 cells): 5.52 to 6.00
- pIC50 (A549 cells): 5.52 to 6.00
- pIC50 (HCT-116 cells): ≥ 6.00
